How the values were obtained:
[1] = test system: all the breast cancer cell lines; test: PI assay, summary over the breast cancer cell line panel; type: cell-based; settings: Homo sapiens; nine breast cancer cell lines of Table 1B; read-out: IC50 range over all the breast cancer cell lines
Protocol: (§1) The propidium iodide fluorescence assay (PI) was carried out according to the procedure mentioned in Anticancer Drugs, 1995, 6, 522-32. The assay was developed to characterize the in vitro growth of human tumor cell lines as well as to test the cytotoxic activity of the compounds. Propidium iodide (PI) was used as a dye, which penetrates only damaged cellular membranes. Intercalation complexes are formed by PI with double-stranded DNA, which effect an amplification of the fluorescence. After freezing the cells at −20° C. for 24 h, PI had access to total DNA leading to total cell population counts. Background readings were obtained from cell-free wells containing media and propidium iodide. The human breast cancer cell lines (i.e. […] Control wells were treated with vehicle (DMSO). At the end of the incubation periods, the plates were assayed using PI cytotoxicity assay protocol. Percent cytoxicity was calculated at various drug concentrations and from the graph plotted the IC50 values were determined.

[2] = test system: HUVEC; test: Endothelial cell tube formation assay; type: cell-based, human
Excerpt: The Tube Formation Assay represents a simple but powerful model for studying inhibition and induction of angiogenesis. The assay relies on the endothelial cells' ability to form distinct blood-vessel like tubules in an extracellular matrix (BD Matrigel™ Matrix, USA) where they can subsequently be visualized by microscopy. It enables analysis of angiogenic tubules in a 3 dimensional matrix that better resembles the native physiological environment.
Confluent HUVEC (Human umbilical vein endothelial cells) were cultured with above mentioned endothelial medium to desired confluence. For HUVEC 60-80% confluence is recommended.
Endothelial cell suspensions were prepared by trypsinizing the cell monolayers and resuspending the cells in culture medium with 5-10% serum. (0.5−1)×10^6 cells per 180 μL of cell suspension were added (per well of 24 well plate) to the medium (BD Matrigel Matrix) which, had been thawed at 4° C. This suspension was then added to the plates and kept for incubation. The cells were allowed to adhere for 2-3 h and then Compound A (1 μM), Rotenone (1 μM) (Sigma-Aldrich, USA) and Topotecan (3 μM) (Sigma-Aldrich, USA) (20 μL of 10× stocks) were added to the respective wells. DMSO was used as the control. After 24-48 h of incubation the cells were observed under a phase contrast microscope (Zeiss Axio Observer, Germany) for tube formation and angiogenesis.

[3] = test system: Bcl-2; test: Western blot analysis in MCF-7 cells; type: cell-based, human; settings: 1.5 and 4.5 μM, 6, 24 and 30 h
Protocol: (§2) The Western blot assay was carried out according to the procedure disclosed in Molecular Cancer Therapeutics, 2007, 6, 918-925 with some modifications.
(§3) MCF-7 and MDA-MB-231 cells were seeded in RPMI 1460 medium with 10% FCS in […] tissue culture flask and incubated for 24 h. The cells were treated with Compound A at 1.5 and 4.5 μM. At various time points, i.e. 6, 24 and 30 h the cells were harvested or trypsinized and lysed using lysis buffer (Sigma Aldrich, USA). Protein content was estimated. Lysate was applied to Sodium Dodecyl Sulphate-Polyacrylamide Gel Electrophoresis (SDS-PAGE) followed by western blotting (Molecular Cancer Therapeutics, 2007, 6, 918-925). Western blotting was done using specific antibodies to Bcl-2 and actin. The results are depicted in FIG. 4.

[4] = test system: Bcl-2; test: Western blot analysis in MDA-MB-231 cells; type: cell-based, human; settings: 1.5 and 4.5 μM, 6, 24 and 30 h
Protocol: as §2, §3

[5] = biological target: T1, CDK4-D1 (Cyclin D1 and CDK4) (Homo sapiens, UniProt P11802); test: CDK4 kinase activity after immunoprecipitation from MCF-7 cells; type: cell-based; settings: synchronized MCF-7; 1.5 μM; 3, 6, 9 and 12 h
T1 construct: endogenous in cells; host or cells: MCF-7 (serum-starved, synchronized)
Protocol: For immunoprecipitation assay, the MCF-7 cells were synchronized by serum starvation. These cells were treated with Compound A at 1.5 μM at various time points viz. 3 h, 6 h, 9 h and 12 h. Cells were harvested (trypsinised) and lysed using lysis buffer, and protein content was estimated. CDK4-D1 (Cyclin D1 and CDK4) was purified from the lysate by immunoprecipitation using specific antibody to CDK4. Immune complex was further purified using Protein A sepharose beads (Sigma Aldrich, USA). Immune complex was used to determine CDK4 activity using pRb as a substrate and ^32P labelled ATP (BRIT, India). Reaction mixed was applied to SDS-PAGE followed by transfer and autoradiography.

[6] = test system: MCF-7; test: Cytotoxicity assay using propidium iodide (PI); type: cell-based, human
Protocol: as §1

[7] = test system: MDA-MB-231; test: Cytotoxicity assay using propidium iodide (PI); type: cell-based, human
Protocol: as §1

[8] = test system: MDA-MB-468; test: Cytotoxicity assay using propidium iodide (PI); type: cell-based, human
Protocol: as §1

[9] = test system: CDK4; test: Western blot of cell cycle proteins in MDA-MB-231; type: cell-based, human; settings: 1.5 μM and 5 μM, 24 h
Protocol: (§4) Correlation of PARP activity and cell cycle proteins cyclin D1, total Rb and pRb 780 were studied in two TNBC cell lines viz. MDA-MB-468 and MDA-MB-231. MDA-MB-231 and MDA-MB-468 cells were seeded in RPMI 1460 medium with 10% FCS in […] tissue culture flask and incubated for 24 h. These cells were treated at 1.5 μM and 5 μM Compound A for 24 h. The cells were harvested (trypsinised) and lysed using lysis buffer. Western blotting was carried out (Molecular Cancer […], 2007, 6, 918-925) using specific antibody to PAR, PARP, cyclin D1, CDK4 and pRb Ser 780.

[10] = test system: pRb Ser 780; test: Western blot of cell cycle proteins in MDA-MB-231; type: cell-based, human; settings: 1.5 μM and 5 μM, 24 h
Protocol: as §4

[11] = test system: cyclin D1; test: Western blot of cell cycle proteins in MDA-MB-231; type: cell-based, human; settings: 1.5 μM and 5 μM, 24 h
Protocol: as §4

[12] = Homo sapiens, 48 h treatment, PI assay

T1 sequence (P11802 2-303 limits assumed): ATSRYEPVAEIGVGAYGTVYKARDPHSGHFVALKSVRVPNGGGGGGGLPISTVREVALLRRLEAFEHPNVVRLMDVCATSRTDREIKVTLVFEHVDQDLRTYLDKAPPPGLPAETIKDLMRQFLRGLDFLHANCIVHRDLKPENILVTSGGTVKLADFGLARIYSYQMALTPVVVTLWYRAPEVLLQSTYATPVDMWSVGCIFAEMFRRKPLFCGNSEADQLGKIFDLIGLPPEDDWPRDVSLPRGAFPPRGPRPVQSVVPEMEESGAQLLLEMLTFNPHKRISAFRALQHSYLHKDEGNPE
T1 sequence (P24385 whole entry partner): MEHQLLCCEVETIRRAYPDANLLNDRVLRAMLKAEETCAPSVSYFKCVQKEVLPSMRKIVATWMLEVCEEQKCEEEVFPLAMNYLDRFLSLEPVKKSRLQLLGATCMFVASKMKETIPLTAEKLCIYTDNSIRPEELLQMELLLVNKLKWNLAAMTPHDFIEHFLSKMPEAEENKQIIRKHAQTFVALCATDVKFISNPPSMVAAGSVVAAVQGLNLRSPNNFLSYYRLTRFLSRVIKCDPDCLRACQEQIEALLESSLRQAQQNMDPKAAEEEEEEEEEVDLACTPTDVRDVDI

IC50 [1]: 300 to 1000 nM
SMILES: CN1CC[C@@H](c2c(O)cc(O)c3c(=O)cc(-c4ccccc4Cl)oc23)[C@@H]1CO.Cl [Compound A, (+)-trans-2-(2-Chloro-phenyl)-5,7-dihydroxy-8-(2-hydroxymethyl-1-methyl-pyrrolidin-3-yl)-chromen-4-one hydrochloride]
tube formation inhibition compared with standards ([2]; 1 μM vs Rotenone 1 μM and Topotecan 3 μM): comparable to Rotenone (standard VEGF inhibitor) and better than Topotecan
endothelial tube formation ([2]; HUVEC in Matrigel, 1 μM, 24-48 h): effectively inhibited endothelial tube formation
expression of antiapoptotic protein Bcl-2 [3]: significantly down regulated from 24 h onwards
expression of antiapoptotic protein Bcl-2 [4]: significant down regulation was observed at 30 h
CDK4 kinase activity [5]: Decrease in CDK4 kinase activity in cell-based assay was seen as early as 3 h onwards
IC50 ([6]; Homo sapiens, MCF7, PI assay): 1000 nM
IC10 ([6]; determined as in Example 3): 370 nM
IC30 ([6]; determined as in Example 3): 750 nM
IC50 [7, 12]: 1000 nM
IC10 ([7]; determined as in Example 3): 450 nM
IC30 ([7]; determined as in Example 3): 750 nM
IC50 [8, 12]: 1000 nM
IC10 ([8]; determined as in Example 3): 250 nM
IC30 ([8]; determined as in Example 3): 500 nM
CDK4 level [9]: dose dependent decrease
pRb level [10]: dose dependent decrease
cyclin D1 level [11]: dose dependent decrease
